# Assay results taken from patent US20040102454A1, “Phenylahistin and the phenylahistin analogs, a new class of anti-tumor compounds” (priority 1998, published 2004).
# What was measured:
# [1] = Solubility of phenylahistin in solvents; assay type: physicochemical
# [2] = tested on: 38 tumor cell lines; assay: Human Cancer Cell Line Panel (HCC panel) assay, whole panel; assay type: cell-based; details: (−)-PLH content 24.1%, read-out: GI50 values, range over 38 cell lines
# Protocol: The antitumor activity of PLH was evaluated by the Human Cancer Cell Line Panel (HCC panel) assay, see Yamori T., Jap. J Cancer Chemother., (1997), 24, 129-35. This HCC panel consists of 38 tumor cell lines including 7 lung cancer, 6 stomach, 6 colon, 5 ovary, 6 central nerve system, 5 breast, 2 kidney and 1 melanoma cell lines. Each tumor cell was seeded in 96-well tissue culture plates and incubated overnight. Various concentrations (5 doses; final 10^−4, 10^−5, 10^−6, 10^−7 and 10^−8 M) of PLH were added, and the cells were incubated for 48 hours. […] All mice were obtained from Japan SLC (Shizuoka, Japan), P388 leukemia cells were obtained from Dainippon Pharmaceuticals Inc. (Osaka, Japan), Lewis Lung Carcinoma from Riken Cell Bank (Tsukuba, Japan), and Colon 26 cells from the National Cancer Center, Japan (Tokyo, Japan).
# [3] = tested on: Bacillus natto; assay: Antimicrobial test, filter paper agar flat plate method; assay type: cell-based; details: 100 μg of specimen on 9 mm filter paper
# Protocol: (§1) Using colibacillus strain JM109 as a gram-negative bacterium, Bacillus natto as a […] and Aspergillus niger IFO6341 as a mold, the following antimicrobial test was conducted by the filter paper agar flat plate method, wherein 100 μg of specimen was placed on 9 mm filter paper, dried in air, and standard agar culture medium was used for bacteria and potato dextrose agar culture medium for mold. […] An antimicrobial test was further conducted by the liquid culture medium dilution method using the yeast strain Saccharomyces cerevisise HF7C.
# [4] = tested on: colibacillus strain JM109; assay: as above; assay type: cell-based; details: 100 μg of specimen on 9 mm filter paper
# Protocol: as §1
# [5] = tested on: Aspergillus niger IFO6341; assay: as above; assay type: cell-based; details: 100 μg of specimen on 9 mm filter paper
# Protocol: as §1
# [6] = tested on: Microtubule protein; assay: Electron microscopy of microtubule protein polymerization; assay type: biochemical, bovine; details: 100 μM, 37° C. for 20 min
# Protocol: Microtubule protein (1.5 mg/ml) was polymerized at 37° C. for 20 min in the presence of 100 μM (−)-PLH or vehicle (DMSO). A portion of each sample was diluted 5-fold with 1% glutaraldehyde in the microtubule assembly buffer. Samples were then placed on formvar- and carbon-coated grids, stained with 2% uranyl acetate, and examined using a JEOLJEM-1200 EXII electron microscope JEOL (Tokyo, Japan).
# [7] = target: bovine brain tubulin; assay: [^3H]CLC binding to tubulin and competition assay; details: Dixon plot, assuming competitive inhibition; 0.5 μM [^3H]CLC; read-out: estimated Ki value for CLC binding
# Protocol: [^3H]CLC binding to tubulin was evaluated by the ultrafiltration method of Takahashi, M., et al., Biochim. Biophys. […] The concentration of unbound [^3H]CLC in the filtrates was determined using a EcoLite™(+) liquid scintillator from ICN Pharmaceuticals Inc. (Costa Mesa, Calif.). Specific bound [^3H]CLC concentrations were determined by adding an excess (×100) of unlabeled CLC to the reaction mixture.
# For the competition assay, bovine brain tubulin (0.2 mg/ml) was incubated in the microtubule assembly buffer with 0.5 μM [^3H]CLC and various concentrations of competitors for 20 min at 37° C. [^3H]CLC binding was measured as described above.
# [8] = tested on: C. glabrata; assay: Antifungal susceptibility testing, broth dilution (NCCLS M38-A); assay type: cell-based, Candida glabrata; details: Nakaseomyces glabratus; C. glabrata; 80% reduction in turbidity; read-out: MIC
# Protocol: (§2) Antifungal susceptibility testing was accomplished according to the methods outlined in the National Committee for Clinical Laboratory Standards, M38-A “Reference Method for Broth Dilution Antifungal Susceptibility Testing of Conidium-Forming Filamentous Fungi; Approved Standard.” This includes testing in RPMI-1640 with glutamine and without bicarbonate, an inoculum size of 0.4-5×10^4, and incubation at 30 or 35° C. for 48 hours. […] Drug concentrations were 0.03-16 μg/ml for the investigational compounds, 0.015-8 μg/ml for itraconazole and griseofulvin.
# (§3) The minimum lethal concentration (MLC) was determined by plating […] from the MIC concentration and each concentration above the MIC. […] When a MIC was obtained, a minimum fungicidal concentration (MFC) was determined to assess the fungistatic/fungicidal nature of the compound. […] The compound is scored as fungistatic if the cells are able to resume growth and fungicidal if no regrowth is possible because the compound had killed the organisms.
# [9] = tested on: microtubules in A549 cells; assay: Immunofluorescence staining of microtubules; assay type: cell-based, human; details: 6 hours incubation
# Protocol: Immunocytochemical staining was performed using the method described by Yahara, I. et al., Cell (1978) 15, 251-259. A549 cells were cultured on glass coverslips and incubated with the test drug for 6 hours. The cells were then fixed with 3.7% formaldehyde for 30 min, permeabilized with 0.2% Triton X-100 for 5 min, and incubated with a mouse monoclonal antibody against α-tubulin (Calbiochem®, Oncogene Research Products, Cambridge, Mass.), followed by incubation with fluorescein isothiocyanate-conjugated goat anti-mouse IgG from Cosmo Bio Co., (Tokyo, Japan), and the cells were examined under an immunofluorescent microscope.
# [10] = tested on: A. fumigatus isolate #2; assay: Antifungal susceptibility testing, broth dilution (NCCLS M38-A); assay type: cell-based; details: Aspergillus fumigatus, 80% reduction in turbidity
# Protocol: as §2, §3
# [11] = tested on: A. fumigatus isolate #1; assay: as above; assay type: cell-based; details: Aspergillus fumigatus, 80% reduction in turbidity
# Protocol: as §2, §3
# [12] = tested on: A549 cells; assay: Mitotic index; assay type: cell-based, human
# Protocol: Exponentially growing A549 cells were seeded into 96-well tissue culture plates (2×10^3 cells/100:1/well) and cultured for 16 hours. (−)-PLH or CLC was then added to each well at various concentrations, and the plates were incubated for an additional 24 hours. The number of cells in mitosis (round cells) and total cells in eight randomly selected fields were counted under a phase-contrast microscope. In a series of preliminary studies, it was confirmed that the round cells in this condition were cells in mitosis by using flow cytometry and Hoechst 33258 staining. The mitotic index represented the percentage of round cells among the total number of cells in the eight selected fields.
SMILES,"solubility ([1]; in ethyl acetate, chloroform, methanol, and pyridine)","solubility ([1]; in water, benzene, and toluene)",GI50 [2] [µM],antimicrobial activity [3],antimicrobial activity [4],antimicrobial activity [5],microtubule structures by electron microscopy [6],Ki [7] [µM],MIC [8] [µg/mL],microtubule structure (anti α-tubulin staining) [9],MIC [10] [µg/mL],MIC [11] [µg/mL],mitotic index ([12]; 24 hours),reversibility of the anti-mitotic effect ([12]; after washing and replacement with fresh medium)
"C=CC(C)(C)c1[nH]cnc1/C=C1\NC(=O)[C@H](Cc2ccccc2)NC1=O (racemic) [PLH, phenylahistin]",soluble,only slightly soluble,0.23 to 40,No antimicrobial activity,No antimicrobial activity,No antimicrobial activity,,,,,,,,
C=CC(C)(C)c1[nH]cnc1/C=C1\NC(=O)[C@H](Cc2ccccc2)NC1=O [(−)-phenylahistin],,,,,,,did not contain such structures,7.4,> 70,disappearance of the microtubule network,> 16,> 16,increased,reversible
